PMC6482412, “Studies on spiro[4.5]decanone prolyl hydroxylase domain inhibitors” (MedChemComm, 2019)
Like-named read-outs stand apart in the source and are kept apart here.

Assays:
Type in all cases: biochemical
[1] = target: T1, tPHD2 (PHD2 181-426) with HIF-1α CODD (Homo sapiens, UniProt Q9GZT9); assay: RapidFire-MS PHD2 hydroxylation assay, HIF-1α CODD peptide substrate; details: for tPHD2 inhibition (in words): tPHD2, HIF-1α CODD substrate
T1 construct: catalytic domain of truncated PHD2 (tPHD2, residues 181–426); His6 (N, cleaved yes); made in house; host or cells: E. coli BL21 DE3
T1 sequence (Q9GZT9 181-426): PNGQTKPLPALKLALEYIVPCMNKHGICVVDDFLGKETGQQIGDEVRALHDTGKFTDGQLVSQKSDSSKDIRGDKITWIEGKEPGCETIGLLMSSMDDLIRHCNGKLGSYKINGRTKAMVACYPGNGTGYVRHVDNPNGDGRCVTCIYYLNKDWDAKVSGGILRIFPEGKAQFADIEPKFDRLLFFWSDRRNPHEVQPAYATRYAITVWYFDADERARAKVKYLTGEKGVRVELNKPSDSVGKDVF
Experimental: (§1) 11–16 were then assayed using mass spectrometry (MS) for inhibition of the catalytic domain of truncated PHD2 (tPHD2, residues 181–426) and (in selected cases) PHD3, employing either human HIF-1α CODD or NODD peptide sequences (Table 1).
(§2) Supplementary Information
(§3) RapidFire-MS PHD2 hydroxylation assays
(§4) Inhibition of PHD2 enzyme activity was assessed by mass spectrometry. The enzyme assay monitors tPHD2181-426 catalysed turnover of a C-terminal oxygenase […]
(§5) C-terminal amide) and appearance of the hydroxylated peptide product
(§6) (hydroxylation of proline 564) with a typical incubation time of 15 minutes.2 Assays were performed in 50 mM Tris.Cl pH 7.8, 50 mM NaCl, titrations of compounds for […]
(§7) ECHO 550 acoustic dispenser (Labcyte) and dry dispensed into 384-well polypropylene assay plates. The final assay concentration of DMSO was kept constant at 0.5% (v/v). tPHD2181-426 was at a concentration of 300 nM in the assay buffer (20 μM ferrous iron sulfate, 200 μM L-ascorbic acid, 10 μM CODD or NODD peptide and 20 μM 2-oxoglutarate) and 25 μl was dispensed across each 384-well assay plate. tPHD2181-426 was allowed to equilibrate with compounds for 15 minutes; the reaction was then initiated by addition of 25 μl of substrate.2 Enzyme reactions were allowed to proceed for 15 minutes and the reaction terminated by addition of 10% (v/v) formic acid (5 μl). Assay plates were then transferred to a RapidFire RF360 sampling robot (Agilent) connected to an Agilent 6530 quadrupole-time-of-flight (Q-TOF) mass spectrometer. Assay samples were aspirated under vacuum and loaded onto a C4 solid phase extraction (SPE) cartridge. After loading, the C4 SPE cartridge was washed with 0.1 % (v/v) formic acid in water to remove non-volatile buffer salts.
(§8) The peptide was then eluted from the SPE with 85% acetonitrile, 15% water containing 0.1% (v/v) formic acid into the mass spectrometer. Peptide charge states were monitored in the positive ion mode. Ion chromatogram data were extracted for […]
(§9) the +2 charge state and peak area data integrated using RapidFire Integrator software (Agilent). The % conversion of the CODD peptide substrate to the +16 hydroxylated peptide was calculated using the equation: […]
(§10) data were determined from non-linear regression plots using GraphPad prism 6.0.
(§11) All data were normalized to a no enzyme control.2

[2] = target: T2, tPHD2 (PHD2 181-426) with HIF-1α NODD (Homo sapiens, UniProt Q9GZT9); assay: RapidFire-MS PHD2 hydroxylation assay, HIF-1α NODD peptide substrate
T2 construct: catalytic domain of truncated PHD2 (tPHD2, residues 181–426); His6 (N, cleaved yes); made in house; host or cells: E. coli BL21 DE3
T2 sequence (Q9GZT9 181-426): as above
Experimental: as §1, §2, §3, §4, §5, §6, §7, §8, §9, §10, §11

KDM4A = target: T3, KDM4A (Homo sapiens, UniProt O75164); assay: KDM4A selectivity assay with H3(1-15) K9Me3, RapidFire-MS; details: isolated KDM4A, Table S2
T3 sequence (O75164 1-1064): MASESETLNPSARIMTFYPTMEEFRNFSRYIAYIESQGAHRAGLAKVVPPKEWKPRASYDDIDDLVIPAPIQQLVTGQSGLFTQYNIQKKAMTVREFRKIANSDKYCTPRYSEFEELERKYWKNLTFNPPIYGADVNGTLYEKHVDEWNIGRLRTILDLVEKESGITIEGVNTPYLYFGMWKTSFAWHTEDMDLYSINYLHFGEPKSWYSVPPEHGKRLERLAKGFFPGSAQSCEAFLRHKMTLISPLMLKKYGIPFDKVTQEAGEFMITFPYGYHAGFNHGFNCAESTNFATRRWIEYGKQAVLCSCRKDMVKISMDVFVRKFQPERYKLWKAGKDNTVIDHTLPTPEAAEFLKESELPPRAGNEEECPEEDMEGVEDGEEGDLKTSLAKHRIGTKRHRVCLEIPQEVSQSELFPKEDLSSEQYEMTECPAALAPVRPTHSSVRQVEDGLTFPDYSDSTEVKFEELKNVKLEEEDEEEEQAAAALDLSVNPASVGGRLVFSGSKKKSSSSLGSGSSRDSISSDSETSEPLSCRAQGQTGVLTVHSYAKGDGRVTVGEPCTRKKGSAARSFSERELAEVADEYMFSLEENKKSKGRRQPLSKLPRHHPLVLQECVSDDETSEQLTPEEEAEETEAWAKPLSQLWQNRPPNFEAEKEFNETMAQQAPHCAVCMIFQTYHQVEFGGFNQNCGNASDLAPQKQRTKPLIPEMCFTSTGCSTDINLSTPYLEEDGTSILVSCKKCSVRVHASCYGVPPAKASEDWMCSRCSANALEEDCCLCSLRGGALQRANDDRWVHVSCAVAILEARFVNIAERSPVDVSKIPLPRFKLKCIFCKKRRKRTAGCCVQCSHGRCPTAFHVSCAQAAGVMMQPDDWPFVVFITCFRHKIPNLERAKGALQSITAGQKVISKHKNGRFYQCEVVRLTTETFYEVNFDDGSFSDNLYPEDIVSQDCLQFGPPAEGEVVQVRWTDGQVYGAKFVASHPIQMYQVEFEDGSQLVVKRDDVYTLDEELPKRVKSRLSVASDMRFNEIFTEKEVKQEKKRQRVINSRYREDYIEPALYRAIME
Excerpt: (§12) We carried out initial studies on the selectivity of the spiro[4.5]decanone series.
as §2
(§13) Table S2: Studies on the selectivity of spiro[4.5]decanone containing inhibitors.
(§14) Compounds were screened against FIH with the HIF-1α CAD peptide D788 - L822 and
(§15) KDM4A with H3(1 - 15) K9Me3. Both assays employed the RapidFire-MS sampling
(§16) machine. See Experimental Methods for details. 2 […]

PHD3 = PHD3 (Homo sapiens, UniProt Q9H6Z9); assay: PHD3 catalysed HIF-1α CODD hydroxylation, RapidFire mass spectrometry
PHD3, sequence (Q9H6Z9 whole entry): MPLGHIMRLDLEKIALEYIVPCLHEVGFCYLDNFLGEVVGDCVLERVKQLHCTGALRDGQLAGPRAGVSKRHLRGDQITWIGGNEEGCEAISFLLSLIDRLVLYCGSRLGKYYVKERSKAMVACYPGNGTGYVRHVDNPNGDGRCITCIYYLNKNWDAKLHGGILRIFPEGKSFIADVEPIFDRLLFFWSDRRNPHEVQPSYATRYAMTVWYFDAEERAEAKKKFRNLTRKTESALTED
Experimental: as §1, §12

[3] = target: factor inhibiting HIF (FIH) (Homo sapiens, UniProt Q9NWT6); assay: FIH selectivity assay with HIF-1α CAD peptide D788-L822, RapidFire-MS; details: isolated FIH, Table S2
factor inhibiting HIF (FIH), sequence (Q9NWT6 whole entry): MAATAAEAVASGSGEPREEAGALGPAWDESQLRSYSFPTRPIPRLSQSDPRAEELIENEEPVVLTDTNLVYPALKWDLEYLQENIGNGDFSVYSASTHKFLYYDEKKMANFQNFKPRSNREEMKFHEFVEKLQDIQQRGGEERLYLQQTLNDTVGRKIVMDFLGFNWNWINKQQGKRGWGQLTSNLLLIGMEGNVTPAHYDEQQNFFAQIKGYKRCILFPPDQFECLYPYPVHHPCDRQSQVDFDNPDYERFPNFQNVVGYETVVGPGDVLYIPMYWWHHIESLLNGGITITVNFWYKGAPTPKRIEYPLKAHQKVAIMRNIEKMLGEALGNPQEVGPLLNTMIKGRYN
Excerpt: as §12, §2, §13, §14, §15, §16

[4] = tPHD2 181-426, HIF-1α CODD peptide, RapidFire MS, standard error of the mean (n = 3), read-out: PHD2 with HIF1-α CODD IC50
[5] = tPHD2 181-426, HIF-1α NODD peptide, RapidFire MS, standard error of the mean (n = 3), read-out: PHD2 with HIF1-α NODD IC50

With O=C1N(c2ccc(-c3ccccc3)cc2)C(=O)C2(CCNCC2)N1c1ncccn1 [Compound 10] the IC50 [1, 4] was > 25000 nM and the IC50 [2, 5] was > 25000 nM.

In the case of Cc1cccnc1CN1CCC2(CC1)C(=O)N(c1ccc(-c3ccccc3)cc1)C(=O)N2c1ncccn1 [Compound 11], the “KDM4A inhibition (in words)” value (KDM4A) is reported as “weak”.

With O=C1N(c2ccc(-c3ccccc3)cc2)C(=O)C2(CCN(Cc3cccs3)CC2)N1c1ncccn1 [Compound 12] the IC50 [1, 4] was > 25000 nM, the “tPHD2 inhibition (in words)” value [1] was “inactive” and the IC50 [2, 5] was > 25000 nM.

O=C1N(c2ccc(-c3ccccc3)cc2)C(=O)C2(CCN(Cc3ccccc3O)CC2)N1c1ncccn1 [Compound 13] was tested, and the IC50 [1] was > 25000 nM, the “tPHD2 inhibition (in words)” value [1] was “inactive” and the IC50 [2] was > 25000 nM.

In the case of Cn1ccnc1CN1CCC2(CC1)C(=O)N(c1ccc(-c3ccccc3)cc1)C(=O)N2c1ncccn1 [Compound 14], the IC50 [1] is reported as 143 ± 97 nM, the “tPHD2 inhibition (in words)” value [1] is reported as “maintained potent inhibition” and the IC50 [2] is reported as 49 ± 5 nM. For the same compound, the “KDM4A inhibition (in words)” value (KDM4A) was “weak”.

In the case of O=C1N(c2ccc(-c3ccccc3)cc2)C(=O)C2(CCN(Cc3ncc[nH]3)CC2)N1c1ncccn1 [Compound 15], the IC50 [1, 4] is reported as 215 ± 19 nM, the “tPHD2 inhibition (in words)” value [1] is reported as “maintained potent inhibition” and the IC50 [2, 5] is reported as 70 ± 21 nM.

Compound COc1cccc(CN2CCC3(CC2)C(=O)N(c2ccc(-c4ccccc4)cc2)C(=O)N3c2ncccn2)n1 [Compound 16] has an IC50 [1, 4] of 1210 ± 226 nM and an IC50 [2, 5] of 905 ± 417 nM.

For Cc1cccnc1CN1CCC2(CC1)NC(=O)N(c1ccc(-c3ccccc3)cc1)C2=O [Compound 23], the IC50 (PHD3) was 1050 ± 40 nM.

Work on Cn1ccnc1CN1CCC2(CC1)NC(=O)N(c1ccc(-c3ccccc3)cc1)C2=O [Compound 24] yielded an IC50 [1, 4] of 151 ± 35 nM, an IC50 [2, 5] of 63 ± 16 nM and an IC50 (PHD3) of 219 ± 25 nM.

With COc1ccnc(N2C(=O)N(c3ccc(-c4ccccc4)cc3)C(=O)C23CCN(Cc2ncccc2C)CC3)n1 [Compound 26] the “FIH inhibition (in words)” value [3] was “weak”, the IC50 [1, 4] was 289 ± 11 nM and the IC50 [2, 5] was 55 ± 15 nM.

Work on Cc1cccnc1CN1CCC2(CC1)C(=O)N(c1ccc(-c3ccccc3)cc1)C(=O)N2c1cc(C(=O)O)ccn1 [Compound 27] yielded an IC50 [1, 4] of 380 ± 64 nM and an IC50 [2, 5] of 94 ± 32 nM.
